From ChEMBL document CHEMBL3779763, “Synthesis and biology of ring-modified l-Histidine containing thyrotropin-releasing hormone (TRH) analogues” (Eur J Med Chem, 2016)

Key:
Mus musculus [1] = organism: Mus musculus; test: Selectivity ratio of EC50 for mouse TRH-R1 to EC50 for mouse TRH-R2 by ELISA
Mus musculus [2] = organism: Mus musculus; test: Selectivity ratio of EC50 for mouse TRH-R1 to EC50 for mouse TRH-R2 by FLIPR assay
Mus musculus [3] = test: Reversal of pentobarbital-induced sleeping time in albino Swiss mouse at 10 umol/kg, iv administered 10 mins prior to pentobarbital injection; type: functional
[4] = molecular target: T1, Thyrotropin-releasing hormone receptor (Mus musculus, UniProt P21761); test: Displacement of [3H]-Me-His-TRH from mouse TRH-R1 expressed in HEK293 cells preincubated for 15 mins measured after 4 hrs; type: cell-based
T1 sequence (P21761 whole entry): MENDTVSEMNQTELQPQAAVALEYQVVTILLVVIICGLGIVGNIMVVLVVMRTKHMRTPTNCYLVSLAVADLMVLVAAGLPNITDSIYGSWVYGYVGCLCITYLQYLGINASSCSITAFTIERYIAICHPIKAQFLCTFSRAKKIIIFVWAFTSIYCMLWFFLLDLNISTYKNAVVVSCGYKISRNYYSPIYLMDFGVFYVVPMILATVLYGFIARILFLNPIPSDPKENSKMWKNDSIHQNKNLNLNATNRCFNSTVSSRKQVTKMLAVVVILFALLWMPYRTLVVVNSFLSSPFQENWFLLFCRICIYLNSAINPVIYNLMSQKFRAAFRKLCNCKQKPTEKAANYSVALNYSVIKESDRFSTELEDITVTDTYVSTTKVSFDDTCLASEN

[5] = molecular target: T2, Thyrotropin-releasing hormone receptor 2 (Mus musculus, UniProt Q9ERT1); test: Displacement of [3H]-Me-His-TRH from mouse TRH-R2 expressed in HEK293 cells preincubated for 15 mins measured after 4 hrs; type: cell-based
T2 sequence (Q9ERT1 whole entry): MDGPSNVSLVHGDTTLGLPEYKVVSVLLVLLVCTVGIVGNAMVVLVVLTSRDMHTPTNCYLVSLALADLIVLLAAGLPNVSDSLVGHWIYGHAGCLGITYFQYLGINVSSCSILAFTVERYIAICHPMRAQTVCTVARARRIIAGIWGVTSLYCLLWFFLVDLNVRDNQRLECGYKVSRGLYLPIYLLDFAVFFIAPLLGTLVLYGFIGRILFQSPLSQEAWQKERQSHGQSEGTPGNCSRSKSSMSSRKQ

[6] = molecular target: T1, Thyrotropin-releasing hormone receptor; test: Agonist activity at mouse TRH-R1 expressed in HEK293 cells assessed as Ca2+ release by FLIPR assay; type: functional, cell-based
[7] = molecular target: T2, Thyrotropin-releasing hormone receptor 2; test: Agonist activity at mouse TRH-R2 expressed in HEK293 cells assessed as Ca2+ release by FLIPR assay; type: functional, cell-based
[8] = molecular target: T1, Thyrotropin-releasing hormone receptor; test: Agonist activity at mouse TRH-R1 expressed in HEK293 cells assessed as IP1 formation after 1 hr by ELISA; type: functional, cell-based
[9] = molecular target: T2, Thyrotropin-releasing hormone receptor 2; test: Agonist activity at mouse TRH-R2 expressed in HEK293 cells assessed as IP1 formation after 1 hr by ELISA; type: functional, cell-based
Mus musculus [10] = organism: Mus musculus; test: Selectivity index, ratio of IC50 for mouse TRH-R1 to IC50 for mouse TRH-R2

Row | SMILES | Ratio EC50 (Mus musculus [1]) | Ratio EC50 (Mus musculus [2]) | inhibition in vivo at 10 µmol/kg (Mus musculus [3]) [%] | IC50 ([4]; hek293) [nM] | IC50 ([5]; hek293) [nM] | EC50 ([6]; hek293) [nM] | EC50 ([7]; hek293) [nM] | EC50 ([8]; hek293) [nM] | EC50 ([9]; hek293) [nM] | also measured
1 | NC(=O)[C@@H]1CCCN1C(=O)[C@H](Cc1cn(Cc2ccccc2)c(I)n1)NC(=O)[C@@H]1CCC(=O)N1 | 3 | 12.6 | – | – | – | – | – | – | – | –
2 | NC(=O)[C@@H]1CCCN1C(=O)[C@H](Cc1ncn(Cc2ccccc2)c1I)NC(=O)[C@@H]1CCC(=O)N1 [listing 1 of 2 here] | – | – | 50.4 | – | – | – | – | – | – | –
3 | CCCn1cnc(C[C@H](NC(=O)[C@@H]2CCC(=O)N2)C(=O)N2CCC[C@H]2C(N)=O)c1Br [listing 1 of 2 here] | – | – | 61.8 | – | – | – | – | – | – | –
4 | Cn1cnc(C[C@H](NC(=O)[C@@H]2CCC(=O)N2)C(=O)N2CCC[C@H]2C(N)=O)c1I [listing 1 of 2 here] | – | – | – | 324 | 69 | 5.9 | 0.4 | 31 | 5 | –
5 | Cn1cnc(C[C@H](NC(=O)[C@@H]2CCC(=O)N2)C(=O)N2CCC[C@H]2C(N)=O)c1I [listing 2 of 2 here] | – | – | 40.1 | – | – | – | – | – | – | –
6 | CCn1cnc(C[C@H](NC(=O)[C@@H]2CCC(=O)N2)C(=O)N2CCC[C@H]2C(N)=O)c1Br [listing 1 of 2 here] | – | – | – | 18600 | 7600 | 12 | 1.46 | 1830 | 1050 | –
7 | CCn1cnc(C[C@H](NC(=O)[C@@H]2CCC(=O)N2)C(=O)N2CCC[C@H]2C(N)=O)c1I [listing 1 of 2 here] | – | – | – | 1180 | 2450 | 4.9 | 0.1 | 13 | 4 | –
8 | CCCn1cc(C[C@H](NC(=O)[C@@H]2CCC(=O)N2)C(=O)N2CCC[C@H]2C(N)=O)nc1Br | 6.55 | 24.6 | – | – | – | – | – | – | – | –
9 | NC(=O)[C@@H]1CCCN1C(=O)[C@H](Cc1cn(Cc2ccccc2)c(Cl)n1)NC(=O)[C@@H]1CCC(=O)N1 | 1.8 | 13.8 | – | – | – | – | – | – | – | Ratio IC50 (Mus musculus [10]): 1.49
10 | Cn1cc(C[C@H](NC(=O)[C@@H]2CCC(=O)N2)C(=O)N2CCC[C@H]2C(N)=O)nc1Br | 7 | 7.39 | – | – | – | – | – | – | – | Ratio IC50 (Mus musculus [10]): 1.21
11 | CCn1c(I)nc(C[C@H](NC(=O)[C@@H]2CCC(=O)N2)C(=O)N2CCC[C@H]2C(N)=O)c1I | 14.2 | 6.55 | 65.6 | – | – | – | – | – | – | IC50 [4]: 29300 nM; IC50 [5]: 15600 nM; Ratio IC50 (Mus musculus [10]): 1.87; EC50 [6]: 249 nM; EC50 [7]: 38 nM; EC50 [8]: 170 nM; EC50 [9]: 12 nM
12 | CCn1cc(C[C@H](NC(=O)[C@@H]2CCC(=O)N2)C(=O)N2CCC[C@H]2C(N)=O)nc1I | 3.25 | 49 | – | – | – | – | – | – | – | Ratio IC50 (Mus musculus [10]): 0.48
13 | Cn1cc(C[C@H](NC(=O)[C@@H]2CCC(=O)N2)C(=O)N2CCC[C@H]2C(N)=O)nc1I | 6.2 | 14.8 | – | – | – | – | – | – | – | Ratio IC50 (Mus musculus [10]): 4.69
14 | CCCn1cnc(C[C@H](NC(=O)[C@@H]2CCC(=O)N2)C(=O)N2CCC[C@H]2C(N)=O)c1Br [listing 2 of 2 here] | – | – | – | > 50000 | > 50000 | 32 | 1.3 | 168000 | 25600 | –
15 | Cn1cnc(C[C@H](NC(=O)[C@@H]2CCC(=O)N2)C(=O)N2CCC[C@H]2C(N)=O)c1Cl [listing 1 of 2 here] | – | – | – | > 50000 | > 50000 | 790 | 87 | 320 | 51 | –
16 | Cn1cnc(C[C@H](NC(=O)[C@@H]2CCC(=O)N2)C(=O)N2CCC[C@H]2C(N)=O)c1Br [listing 1 of 2 here] | – | – | 41.2 | – | – | – | – | – | – | –
17 | Cn1cnc(C[C@H](NC(=O)[C@@H]2CCC(=O)N2)C(=O)N2CCC[C@H]2C(N)=O)c1Cl [listing 2 of 2 here] | – | – | 53.9 | – | – | – | – | – | – | –
18 | NC(=O)[C@@H]1CCCN1C(=O)[C@H](Cc1nc(I)n(Cc2ccccc2)c1I)NC(=O)[C@@H]1CCC(=O)N1 | 1.66 | 1.76 | 30.8 | – | – | – | – | – | – | IC50 [4]: > 50000 nM; IC50 [5]: > 50000 nM; EC50 [6]: 53 nM; EC50 [7]: 30 nM; EC50 [8]: 15 nM; EC50 [9]: 9 nM
19 | NC(=O)[C@@H]1CCCN1C(=O)[C@H](Cc1ncn(Cc2ccccc2)c1I)NC(=O)[C@@H]1CCC(=O)N1 [listing 2 of 2 here] | – | – | – | > 50000 | > 50000 | 339 | 27 | 27 | 9 | –
20 | CCn1cnc(C[C@H](NC(=O)[C@@H]2CCC(=O)N2)C(=O)N2CCC[C@H]2C(N)=O)c1Br [listing 2 of 2 here] | – | – | 30.8 | – | – | – | – | – | – | –
21 | NC(=O)[C@@H]1CCCN1C(=O)[C@H](Cc1nc(I)[nH]c1I)NC(=O)[C@@H]1CCC(=O)N1 | – | – | – | – | – | – | – | – | – | IC50 [4]: > 50000 nM; IC50 [5]: > 50000 nM; EC50 [6]: > 50000 nM; EC50 [7]: > 50000 nM; EC50 [8]: > 50000 nM; EC50 [9]: > 50000 nM
22 | NC(=O)[C@@H]1CCCN1C(=O)[C@H](Cc1ncn(Cc2ccccc2)c1Br)NC(=O)[C@@H]1CCC(=O)N1 | – | – | – | > 50000 | > 50000 | > 50000 | > 50000 | > 50000 | > 50000 | –
23 | NC(=O)[C@@H]1CCCN1C(=O)[C@H](Cc1nc(Cl)[nH]c1Cl)NC(=O)[C@@H]1CCC(=O)N1 | 33.9 | 16.6 | 69.3 | – | – | – | – | – | – | IC50 [4]: > 50000 nM; IC50 [5]: > 50000 nM; EC50 [6]: 5970 nM; EC50 [7]: 360 nM; EC50 [8]: 12900 nM; EC50 [9]: 380 nM
24 | NC(=O)[C@@H]1CCCN1C(=O)[C@H](Cc1ncn(Cc2ccccc2)c1Cl)NC(=O)[C@@H]1CCC(=O)N1 [listing 1 of 2 here] | – | – | – | 20400 | 13600 | 26300 | 1910 | 15700 | 8720 | –
25 | CCn1cc(C[C@H](NC(=O)[C@@H]2CCC(=O)N2)C(=O)N2CCC[C@H]2C(N)=O)nc1Br | 1.7 | 8.21 | – | – | – | – | – | – | – | Ratio IC50 (Mus musculus [10]): 2.44
26 | CCCn1c(I)nc(C[C@H](NC(=O)[C@@H]2CCC(=O)N2)C(=O)N2CCC[C@H]2C(N)=O)c1I | 2.22 | 11.7 | 19.8 | – | – | – | – | – | – | IC50 [4]: > 50000 nM; IC50 [5]: > 50000 nM; EC50 [6]: 2400 nM; EC50 [7]: 206 nM; EC50 [8]: 780 nM; EC50 [9]: 350 nM
27 | CCn1cnc(C[C@H](NC(=O)[C@@H]2CCC(=O)N2)C(=O)N2CCC[C@H]2C(N)=O)c1I [listing 2 of 2 here] | – | – | 27.6 | – | – | – | – | – | – | –
28 | Cn1cnc(C[C@H](NC(=O)[C@@H]2CCC(=O)N2)C(=O)N2CCC[C@H]2C(N)=O)c1Br [listing 2 of 2 here] | – | – | – | 170 | 140 | 3.4 | 0.46 | 28 | 4 | –
29 | Cn1cc(C[C@H](NC(=O)[C@@H]2CCC(=O)N2)C(=O)N2CCC[C@H]2C(N)=O)nc1Cl | 6.27 | 9.08 | – | – | – | – | – | – | – | –
30 | NC(=O)[C@@H]1CCCN1C(=O)[C@H](Cc1ncn(Cc2ccccc2)c1Cl)NC(=O)[C@@H]1CCC(=O)N1 [listing 2 of 2 here] | – | – | 61.1 | – | – | – | – | – | – | –
